pIC50: −log10 of the molar value.
Columns and labels:
[1] = target: T1, chimeric Gal4-DBD human GCNF-LBD (Homo sapiens, UniProt Q15406); assay: Luciferase cotransfection reporter assay in HEK293 cells; format: cell-based; settings: read-out: IC50, suppression of GCNF transactivation
T1 construct: expressed in transfected cells; host or cells: HEK293
T1 sequence (Q15406 249-480 limits assumed): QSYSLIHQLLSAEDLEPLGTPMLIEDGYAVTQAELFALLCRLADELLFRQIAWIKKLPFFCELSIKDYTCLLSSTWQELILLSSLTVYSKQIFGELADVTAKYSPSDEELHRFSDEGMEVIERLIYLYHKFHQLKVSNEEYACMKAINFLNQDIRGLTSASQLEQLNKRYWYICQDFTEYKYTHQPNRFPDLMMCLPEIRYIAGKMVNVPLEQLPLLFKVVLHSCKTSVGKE
Description: Cell Culture, Cotransfection Assays, and QPCR Analysis. Cotransfection assays were performed in HEK293 cells as previously described (Griffett et al., 2013; Wu et al., 2003; Savkur et al., 2003). Briefly, for dose-response cotransfection assays, a chimeric Gal4-DBD human GCNF-LBD in the pBIND vector was cotransfected with pGL4.35[luc2P/9XGAL4UAS/Hygro] vector (Promega). All cotransfections were normalized to renilla (pGL4.73; Dual-Glo luciferase reagent; Promega) and subsequently DMSO for analysis.

[2] = target: T2, GCNF LBD (Homo sapiens, UniProt Q15406); assay: Differential scanning fluorimetry (DSF) of GCNF LBD; format: binding; settings: 20 μM ligand; GCNF LBD Tm 41.9±0.6° C.; significance cutoff 2° C.; read-out: increase of melting temperature (ΔTm) of GCNF LBD
T2 construct: Human GCNF (NR6A1) LBD (residues 248-480); made in house; host or cells: E. coli BL(21) DE3
T2 sequence (Q15406 248-480): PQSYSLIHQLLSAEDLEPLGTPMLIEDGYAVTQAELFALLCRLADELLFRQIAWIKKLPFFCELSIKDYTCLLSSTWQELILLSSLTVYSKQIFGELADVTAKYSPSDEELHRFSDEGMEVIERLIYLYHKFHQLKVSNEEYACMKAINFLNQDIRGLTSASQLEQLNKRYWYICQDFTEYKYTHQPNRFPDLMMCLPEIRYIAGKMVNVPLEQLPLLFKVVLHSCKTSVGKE
Description: DSF Assay. GCNF LBD (5 μM) were mixed with 1× Sypro orange (Invitrogen) in DSF buffer (50 mM HEPES, 50 mM KCl, 5 mM TCEP, 0.5 mM EDTA, pH 7.5). Test compounds was added at 1:1 molar equivalence as protein or replaced with DMSO control. Ten microliters (10 μL)×5 replicates for each sample were plated on 384-well PCR microplate. No protein control and no ligand references were also run simultaneously in 5 replicates on the same plate. A total of 450 compounds (Life Chemicals) previously selected from a nuclear-receptor-biased library targeting REV-ERB were analyzed. Thermal stability was assessed on a Quantstudio 6 instrument (Biosystems) by ramping the temperature from 25° C. to 95° C. at 0.05° C./s and protein melt shifts were subsequently quantified by Boltzmann-derived melting temperature (Tm) using the Protein Thermal Shift (ThermoFisher) software. Positive hits were identified when a thermal shift (ΔTm) of at least 2° C. was observed.
For the DSF ligand titration assay, ligands 30, 34 and 80 were titrated against 5 μM GCNF LBD with a ligand concentration series of 30, 20, 13, 9, 6, 4, 2.6, 1.7 and 0 μM from a 20 mM DMSO stock solution. DSF assay and analysis was then performed as described above. All DSF data were reported as mean±SEM.

Structure (SMILES)	pIC50 [1]	ΔTm at 20 µM [2]
Cc1ccc(-n2ncc3c(N4CCOCC4)nc(NCc4ccco4)nc32)cc1 [Ligand 34, N-[(furan-2-yl)methyl]-1-(4-methylphenyl)-4-(morpholin-4-yl)-1H-pyrazolo[3,4-d]pyrimidin-6-amine]	5.96	–
O=C(Cn1cc(S(=O)(=O)c2ccccc2)c2ccccc21)N1CCc2ccccc21 [Ligand 80, 2-[3-(benzenesulfonyl)-1H-indol-1-yl]-1-(2,3-dihydro-1H-indol-1-yl)ethan-1-one]	6.50	> 2 °C
